Source: patent publication US11147855B2, “Methods for treating glaucoma or ocular hypertension comprising delivery of prostaglandins to the vitreous humour” (Cella Therapeutics, LLC, priority 2018, dated 2021)

System: African Green monkeys
Test: IOP after intravitreal injection in African Green monkeys, compared with PBS in the fellow eye
Format: in vivo, African Green monkey
Conditions: for animals responding with a reduction in IOP of ≥30%: 4 animals
Procedure: Eight African Green monkeys were screened to identify 4 animals with high-normal IOP. Animals were anesthetized with ketamine 10 mg/kg and Xylazine 0.5 mg/kg. Bimatoprost acid 100 ng in 50 μl was injected intravitreally in one eye through a 30-gauge syringe using a shelved technique, and 50 μl of phosphate buffered saline (PBS) was injected into the fellow eye as a concurrent control on days 0, 1, 2 at 8:30 pm. The bimatoprost acid dose was escalated to 200 ng in 100 μl, with the same volume of PBS given to the fellow eye, on days 3 (8:30 pm) and 4 (5:30 pm). IOP was measured with a Tonovet tonometer at 8:30 am, 11:30 am and 8:30 pm on day 1; 8:30 am, 11:30 am and 5:30 pm on day 4; and at 8:30 am on days 2, 3 and 5. The person measuring the IOP was masked to treatment assignment. Slit lamp exams were performed on day 0, 1 and 5. OCTs were performed at baseline and day 5.

SMILES: O=C(O)CCC/C=C\C[C@@H]1[C@@H](/C=C/[C@@H](O)CCc2ccccc2)[C@H](O)C[C@@H]1O [bimatoprost acid]
- animals responding with a reduction in IOP of ≥30% (100 ng dose intravitreal): One of four
- reduction in IOP compared with the fellow eye (100 ng in 50 μl intravitreal, days 0, 1, 2, animal B392, at 1 timepoint): ≥ 30%
- animals responding with a reduction in IOP of ≥30% (200 ng dose intravitreal): Three of four
- IOP reduced in the treated eye compared with the fellow eye receiving PBS (200 ng dose, animal B392, day 5): 52%
- reduction in IOP compared with the fellow eye (200 ng in 100 μl intravitreal, days 3 and 4, responding animals, at 1 or more timepoints): ≥ 30%
- IOP response (animal B300, 100 ng and 200 ng doses): did not respond to either dose
